Assay [1] addresses T1, recombinant HIV reverse transcriptase (HIV RTR) (Human immunodeficiency virus type 1 group M subtype B, UniProt P04585).
T1 construct: recombinant HIV reverse transcriptase (HIV RTR)
Briefly: Reverse transcriptase assay: incorporation of tritiated dGMP into acid-precipitable cDNA. Format: biochemical. The protocol: The assay measures the incorporation of tritiated deoxyguanosine monophosphate by recombinant HIV reverse transcriptase (HIV RTR) (or other RT) into acid-precipitable cDNA at the Km values of dGTP and poly r(C).oligo d(G)12-18.
Thirty uL of a reaction mixture containing equal volumes of: 500 mM Tris.HCl (pH 8.2), 300 mM MgCl2, 1200 mM KCl, 10 mM DTT, 400 μg/mL poly r(c).oligo d(G) [prepared by dissolving 1.5 mg (25 U) poly r(C).oligo d(G) in 1.5 ml sterile distilled H2 O and diluting to 400 μg/ml], 0.1 μCi/μl [^3 H] dGTP, 160 μM dGTP, was added to 10 μl sterile distilled H2 O, 2.5 μl of potential inhibitor and 10 μL of 5 nM purified HIV RTR in tubes. The mixture was incubated at 37° C. for 45 minutes.
After incubation is complete, the tubes were cooled in ice for 5 minutes. Ice-cold 13% TCA containing 10 mM NaPPi (200 μl) are added and the mixture incubated on ice for 30 minutes. The precipitated cDNA is removed by filtration using presoaked glass filters [TCA, NaPPi ]. The precipitate is then washed with 1N HCl, 10 mM NaPPi. The filter discs are then counted in a scintillation counter.
Under these conditions [dGTP] and poly r(C).oligo d(G)12-18 each are approximately equal to the appropriate Km value. Approximately 5-6,000 cpm of [^3 H] GMP are incorporated into acid-precipitable material. The RT reaction is concentration- and time-dependent. […]

In assay [2] the test system is HIV-1 strain IIIb. Briefly: Inhibition of virus spread in HIV-infected MT-4 cells (p24 antigen). To be noted: Human immunodeficiency virus 1, IIIB, MT4, 72 h, concentration giving greater than 95% reduction in p24 antigen production relative to untreated controls, 3 days incubation, read-out: cell culture inhibitory concentration (CIC95). The class given is cell-based. The protocol:
MT cells were infected at Day O at a concentration of 250,000 per ml with a 1:2000 dilution of HIV-1 strain IIIb stock (final 125 pg p24/ml; sufficient to yield ≤1% infected cells on day 1 and 25-100% on day 4). Cells were infected and grown in the following medium: RPMI 1640 (Whittaker BioProducts), 10% inactivated fetal bovine serum, 4 mM glutamine (Gibco Labs) and 1:100 Penicillin-Streptomycin (Gibco Labs).
The mixture was incubated overnight at 37° C. in 5% CO2 atmosphere.
Serial two-fold dilutions of compound were prepared in cell culture medium. At Day 1, aliquots of 125 μl of compound were added to equal volumes of HIV-infected MT-4 cells (50,000 per well) in a 96-well microtiter cell culture plate. Incubation was continued for 3 days at 37° C. in 5% CO2 atmosphere.
Using a multichannel pipettor, the settled cells were resuspended and a 125 μl harvested into a separate microtiter plate. […]
The concentration of HIV p24 antigen was measured by an enzyme immunoassay,described as follows. Aliquots of p24 antigen to be measured were added to microwells coated with a monoclonal antibody specific for HIV core antigen. […]
The cell culture inhibitory concentration (ClC95) for each compound is defined as that concentration which inhibited by greater than 95% the spread of infection, as assessed by a greater than 95% reduction in p24 antigen production relative to untreated controls.

With `[O-][S+](Cc1[nH]c2ccccc2c1Sc1ccccc1)c1ccccc1` (stereo not drawn) [compound A, 2-Phenylsulfinylmethyl-3-phenylthioindole], the IC50 (as a rule, the point on the concentration scale where inhibition reaches its midpoint) in assay [1] ([dGTP] and poly r(C).oligo d(G)12-18 at approximately Km, 37° C., 45 minutes, read-out: calculated IC50) is ~60 nM. Moreover, in assay [1] (at the Km values of dGTP and poly r(C).oligo d(G)12-18), the “incorporation of tritiated deoxyguanosine monophosphate into acid-precipitable cDNA” value is “inhibits this incorporation”. In addition, the IC95 in assay [2] was ~0.1 µM.

(Values after patent publication US5124327A, “HIV reverse transcriptase” (Merck & Co., Inc., priority 1991, dated 1992).)
